Source: ChEMBL document CHEMBL1681651, “A broad spectrum anticancer nucleoside with selective toxicity against human colon cells in vitro” (2011)

Experiments:
Format in all cases: functional
SF-268 [1] = test: Growth inhibition of human SF268 cells assessed as cell growth at 10 uM after 48 hrs by SRB assay; conditions: SF-268, 48 h, read-out: Activity
M14 [2] = test: Growth inhibition of human M14 cells assessed as cell growth at 100 uM after 48 hrs by SRB assay; conditions: M14, 48 h, read-out: Activity
SK-MEL-2 [3] = test: Growth inhibition of human SK-MEL-2 cells after 48 hrs by […] growth inhibition assay; conditions: SK-MEL-2, 48 h
SK-MEL-2 [4] = test: Growth inhibition of human SK-MEL-2 cells assessed as cell growth at 1 uM after 48 hrs by SRB assay; conditions: SK-MEL-2, 48 h, read-out: Activity
NCI-H322M [5] = test: Growth inhibition of human NCI-H322M cells assessed as cell growth at 100 uM after 48 hrs by SRB assay; conditions: read-out: Activity
NCI-H322M [6] = test: Growth inhibition of human NCI-H322M cells assessed as cell growth at 1 uM after 48 hrs by SRB assay; conditions: read-out: Activity
SF-539 = test: Growth inhibition of human SF539 cells assessed as cell growth at 100 uM after 48 hrs by SRB assay; conditions: SF-539, 48 h, read-out: Activity
M14 [7] = test: Growth inhibition of human M14 cells assessed as cell growth at 1 uM after 48 hrs by SRB assay; conditions: M14, 48 h, read-out: Activity
Malme-3M [8] = test: Growth inhibition of human MALME-3M cells assessed as cell growth at 1 mM after 48 hrs by SRB assay; conditions: read-out: Activity
HCT-116 = test: Growth inhibition of human HCT116 cells assessed as cell growth at 1 uM after 48 hrs by SRB assay; conditions: HCT-116, 48 h, read-out: Activity
UACC-62 [9] = test: Growth inhibition of human UACC62 cells assessed as cell growth at 1 mM after 48 hrs by SRB assay; conditions: UACC-62, 48 h, read-out: Activity
CAKI-1 = test: Growth inhibition of human Caki1 cells after 48 hrs by […] growth inhibition assay; conditions: CAKI-1, 48 h
OVCAR-8 = test: Growth inhibition of human OVCAR8 cells assessed as cell growth at 0.1 uM after 48 hrs by SRB assay; conditions: OVCAR-8, 48 h, read-out: Activity
UACC-257 = test: Growth inhibition of human UACC257 cells assessed as cell growth at 1 mM after 48 hrs by SRB assay; conditions: UACC-257, 48 h, read-out: Activity
MCF7 = test: Growth inhibition of human MCF7 cells assessed as cell growth at 10 uM after 48 hrs by SRB assay; conditions: MCF7, 48 h, read-out: Activity
IGROV-1 = test: Growth inhibition of human IGROV1 cells assessed as cell growth at 1 mM after 48 hrs by SRB assay; conditions: IGROV-1, 48 h, read-out: Activity
CCRF-CEM = test: Growth inhibition of human CCRF-CEM cells assessed as cell growth at 1 mM after 48 hrs by SRB assay; conditions: read-out: Activity
EKVX = test: Growth inhibition of human EKVX cells assessed as cell growth at 0.1 uM after 48 hrs by SRB assay; conditions: read-out: Activity
SF-295 [10] = test: Growth inhibition of human SF295 cells assessed as cell growth at 1 uM after 48 hrs by SRB assay; conditions: SF-295, 48 h, read-out: Activity
Malme-3M [11] = test: Growth inhibition of human MALME-3M cells assessed as cell growth at 10 uM after 48 hrs by SRB assay; conditions: read-out: Activity
A549 = test: Growth inhibition of human A549 cells assessed as cell growth at 100 uM after 48 hrs by SRB assay; conditions: A549, 48 h, read-out: Activity
MDA-MB-435 = test: Growth inhibition of human MDA-MB-435 cells assessed as cell growth at 1 mM after 48 hrs by SRB assay; conditions: MDA-MB-435, 48 h, read-out: Activity
HCC 2998 [12] = test: Growth inhibition of human HCC2998 cells assessed as cell growth at 10 uM after 48 hrs by SRB assay; conditions: HCC 2998, 48 h, read-out: Activity
[13] = Growth inhibition of human […] cells after 48 hrs by […] growth inhibition assay
ACHN = test: Growth inhibition of human ACHN cells assessed as cell growth at 10 uM after 48 hrs by SRB assay; conditions: read-out: Activity
T47D = test: Growth inhibition of human T47D cells assessed as cell growth at 0.1 uM after 48 hrs by SRB assay; conditions: read-out: Activity
UACC-62 [14] = test: Growth inhibition of human UACC62 cells assessed as cell growth at 10 uM after 48 hrs by SRB assay; conditions: UACC-62, 48 h, read-out: Activity
SF-268 [15] = test: Growth inhibition of human SF268 cells after 48 hrs by […] growth inhibition assay; conditions: SF-268, 48 h
SNB-75 = test: Growth inhibition of human SNB75 cells assessed as cell growth at 100 uM after 48 hrs by SRB assay; conditions: SNB-75, 48 h, read-out: Activity
SF-295 [16] = test: Growth inhibition of human SF295 cells after 48 hrs by […] growth inhibition assay; conditions: SF-295, 48 h
[17] = Growth inhibition of human […] cells assessed as cell growth at 1 mM after 48 hrs by SRB assay; conditions: read-out: Activity
MDA-MB-231 = test: Growth inhibition of human MDA-MB-231 cells assessed as cell growth at 100 uM after 48 hrs by SRB assay; conditions: MDA-MB-231, 48 h, read-out: Activity
HCC 2998 [18] = test: Growth inhibition of human HCC2998 cells assessed as cell growth at 0.1 uM after 48 hrs by SRB assay; conditions: HCC 2998, 48 h, read-out: Activity
NCI/ADR-RES = test: Growth inhibition of human NCI/ADR-RES cells assessed as cell growth at 100 uM after 48 hrs by SRB assay; conditions: read-out: Activity
COLO 205 = test: Growth inhibition of human COLO205 cells assessed as cell growth at 0.1 uM after 48 hrs by SRB assay; conditions: COLO 205, 48 h, read-out: Activity
[19] = read-out: LC50 (the source's name)
[20] = read-out: pLC50 (the source's name) (converted)

Work on `CNC(=O)NC[C@H]1O[C@@H](n2cnc3c(NC(=O)Nc4ccccc4)ncnc32)[C@H](O[Si](C)(C)C(C)(C)C)[C@@H]1CC(=O)N(C)OC` yielded a growth at 10 µM (SF-268 [1]) of 91%, a growth at 100 µM (M14 [2]) of 57% and a GI50 (SK-MEL-2 [3]; read-out: GI50) of 14.9 µM. The CC50 (SK-MEL-2 [3]; [19]) was > 100 µM, the TGI (SK-MEL-2 [3]; read-out: TGI) was 83.1 µM and the GI50 (SK-MEL-2 [3]; read-out: pGI50 (converted)) was 14.8 µM. For the same molecule, the CC50 (SK-MEL-2 [3]; [20]) was > 100 µM, the TGI (SK-MEL-2 [3]; read-out: pTGI (converted)) was 83.2 µM and the growth at 1 µM (SK-MEL-2 [4]) was 83%. It also gave a growth at 100 µM (NCI-H322M [5]) of 90%, a growth at 1 µM (NCI-H322M [6]) of 98% and a growth at 100 µM (SF-539) of 65%. For the same molecule, the growth at 1 µM (M14 [7]) was 98%, the growth at 1000 µM (Malme-3M [8]) was 23% and the growth at 1 µM (HCT-116) was 90%. For the same molecule, the growth at 1000 µM (UACC-62 [9]) was 39%, the GI50 (CAKI-1; read-out: GI50) was 53.8 µM and the CC50 (CAKI-1; [19]) was > 100 µM. For the same molecule, the TGI (CAKI-1; read-out: TGI) was > 100 µM, the GI50 (CAKI-1; read-out: pGI50 (converted)) was 53.7 µM and the CC50 (CAKI-1; [20]) was > 100 µM. The TGI (CAKI-1; read-out: pTGI (converted)) was > 100 µM, the growth at 0.1 µM (OVCAR-8) was 107% and the growth at 1000 µM (UACC-257) was 22%. It also gave a growth at 10 µM (MCF7) of 96%, a growth at 1000 µM (IGROV-1) of -6% and a growth at 1000 µM (CCRF-CEM) of 23%. The growth at 0.1 µM (EKVX) was 94%, the growth at 1 µM (SF-295 [10]) was 93% and the growth at 10 µM (Malme-3M [11]) was 93%. It also gave a growth at 100 µM (A549) of 49%, a growth at 1000 µM (MDA-MB-435) of 36% and a growth at 10 µM (HCC 2998 [12]) of 100%. For the same molecule, the GI50 ([13]; read-out: GI50) was 1.58 µM, the CC50 [13, 19] was > 100 µM and the TGI ([13]; read-out: TGI) was 5.4 µM. The GI50 ([13]; read-out: pGI50 (converted)) was 1.58 µM, the CC50 [13, 20] was > 100 µM and the TGI ([13]; read-out: pTGI (converted)) was 5.37 µM. The growth at 10 µM (ACHN) was 95%, the growth at 0.1 µM (T47D) was 90% and the growth at 10 µM (UACC-62 [14]) was 96%. The GI50 (SF-268 [15]; read-out: GI50) was 8.29 µM, the CC50 (SF-268 [15]; [19]) was > 100 µM and the TGI (SF-268 [15]; read-out: TGI) was > 100 µM. For the same molecule, the GI50 (SF-268 [15]; read-out: pGI50 (converted)) was 8.32 µM, the CC50 (SF-268 [15]; [20]) was > 100 µM and the TGI (SF-268 [15]; read-out: pTGI (converted)) was > 100 µM. It also gave a growth at 100 µM (SNB-75) of 54%, a GI50 (SF-295 [16]; read-out: GI50) of 9.09 µM and an LC50 (SF-295 [16]; read-out: LC50) of 16.4 µM. For the same molecule, the TGI (SF-295 [16]; read-out: TGI) was > 100 µM, the GI50 (SF-295 [16]; read-out: pGI50 (converted)) was 9.12 µM and the LC50 (SF-295 [16]; read-out: pLC50 (converted)) was > 100 µM. For the same molecule, the TGI (SF-295 [16]; read-out: pTGI (converted)) was > 100 µM, the growth at 1000 µM [17] was -16% and the growth at 100 µM (MDA-MB-231) was 55%. The growth at 0.1 µM (HCC 2998 [18]) was 102%, the growth at 100 µM (NCI/ADR-RES) was 76% and the growth at 0.1 µM (COLO 205) was 97%.
